# In a melting point compilation (Tetko et al.; mined from patent text by program, amines drawn as free bases though some values may be those of a salt):
row,melting point,SMILES
1,87 to 91 °C,CC(C)OC(=O)C(O)C(CC1CCCCC1)NC(=O)C(Cc1c[nH]cn1)NC(=O)C(CCOc1ccc(F)cc1)Cc1cccc2ccccc12 (mixture of isomers)
2,110 to 112 °C,C=CC(O)c1cccc(C=Cc2ccc3ccc(Cl)cc3n2)c1 (stereo unspecified)
3,197 to 198 °C,CCOc1ccc(C(=O)c2c(N)sc3c2CCN(C(=O)OCc2ccccc2)C3)cc1
4,101 to 102 °C,COC(=O)COc1cccc2c(CNC(=O)COc3ccccc3)coc12
5,119 to 120 °C,CC(=O)N(C)c1ccc(OCc2nc3ccccc3s2)cc1
6,137 to 140 °C,Cc1ccc(F)cc1C(=O)Nc1ccc(C(=O)N2Cc3ccnn3Cc3ccccc32)c(Cl)c1
7,148 to 150 °C,CSC1NC(=O)N(Cc2ccccc2)C(=O)N1N=C(C)C (stereo unspecified)
8,165 to 166 °C,COc1cccc2c1OC(C(N)=O)(c1ccncc1CC(=O)OCc1ccccc1)C2 (stereo unspecified)
9,133 to 135 °C,COC(=O)Nc1ccc(OCc2nc3ccccc3s2)c(Cl)c1
10,190 to 192 °C,Cc1onc(-c2c(Cl)cccc2Cl)c1CN1C(=O)C2(COc3cc4c(cc32)OCO4)c2ccccc21 (stereo unspecified)
11,262 to 263 °C,Cn1c2c(c3ccccc31)CC(C(=O)O)N(C(=O)c1ccc(Cl)cc1)C2 (stereo unspecified)
12,198 °C,CC(Oc1cc(-c2ccccc2)nc2ccccc12)C(=O)N1CCSCC1 (stereo unspecified)
13,147 to 149 °C,O=CNc1ccccc1-c1cc2ccccc2[nH]1
14,180 °C,Cc1cc2cc(CN3CCCCCC3)cnc2cc1NC(=O)c1ccc(-c2ccc(Cl)s2)cc1
15,63 to 66 °C,COC(=O)COc1ccc(C(=O)OCc2ccccc2)cc1
16,82.8 °C,Cc1oc(-c2ccc(C(F)(F)F)cc2)nc1-c1ccc(Br)cc1
17,120 to 123 °C,O=C(O)CCCCCCCCn1cc(-c2ccccc2)c(-c2ccccc2)nc1=O
18,154 to 155 °C,CC(C)(Oc1ccc(CCC(=O)c2ccc(-c3ccc(C(F)(F)F)cc3)s2)cc1)C(=O)O
19,131 to 133 °C,Cc1ccc(S(=O)(=O)N2CCC[C@H](CC(=O)NC(C)C)c3ccccc32)cc1
20,145 to 155 °C,C[C@H](NC(=O)Cc1cc(F)cc(F)c1)C(=O)N[C@@H]1C(=O)Nc2ccccc2S[C@@H]1c1cc(Br)cs1
21,108 to 109 °C,Cc1ccccc1-c1ccc2ccccc2c1C(=O)N(C)C
22,120 to 135 °C,Clc1ccc(CN2CCN=C2C(Cn2ccnc2)c2ccccc2)c(Cl)c1 (stereo unspecified)
23,192 to 193 °C,S=C(Nc1ccc(Br)cn1)N[C@@H]1C[C@@H]1c1ccccc1
24,111 to 112 °C,CC1C(=O)Oc2cc(N(Cc3ccccc3)Cc3ccccc3)ccc21 (stereo unspecified)
25,137 to 140 °C,CS(=O)(=O)Nc1cc2c(cc1Oc1ccccc1)C(=O)C(Br)CO2 (stereo unspecified)
26,151 to 154 °C,CC12CCC3c4ccc(OC(=O)c5ccccc5)cc4CCC3C1CCC2OC(=O)c1cccnc1 (stereo unspecified)
27,169 to 170 °C,CC(=O)c1c(-c2ccc(F)cc2)nn(CC2CC2)c(=O)c1Nc1cccc2ncccc12

# Second part, the compound before the results:
row,SMILES,melting point
1,Fc1cc(F)c2oc(CCC#Cc3ccccn3)nc2c1,93.5 to 94 °C
2,Cc1c(NC(=O)CC(C)(C)C)c(C)c2c(c1-c1ccoc1)OCC2c1ccc(C(C)C)cc1 (stereo unspecified),183 to 185 °C
3,O=C(O)c1csnc1-c1ccc(Cl)cc1,182 °C
4,COc1cc2c(cc1OC)OCC(C(=O)O)=C2,225 to 228 °C
5,CNc1c(Cl)cc(C(=O)NCC2CCN(CCCOC)CC2)c2nccn12,125 °C
6,Cc1ccc(-c2cnc([C@H]3CC[C@H](C#N)CC3)nc2)cc1,172 °C
7,C=CCOc1ccc(C(=O)C=Cc2ccc(OC)cc2OC)cc1,74.5 to 75 °C
8,Cc1cc(-n2nc(C(F)F)cc2-c2ccc(S(C)(=O)=O)cc2)ccc1F,154 to 155 °C
9,Clc1ccc2c(c1)C(c1ccccc1Cl)=NCc1n[nH]cc1-2,142 to 144 °C
10,COC(=O)c1ccc2cc(-c3ccc(CO)c(C45CC6CC(CC(C6)C4)C5)c3)ccc2c1,212 °C
11,Cc1cccc2c1N(C(=O)OC(C)(C)C)CC(=O)N2,175 to 177 °C
12,CCCCCCCC(=O)CCC(C)=O,40 to 41 °C
13,COc1c(C)cc(C(=O)CCC(=O)O)cc1C,108 °C
14,Cc1c(Cl)ccc([N+](=O)[O-])c1N,164 to 165 °C
15,Clc1ccc(-c2ccc3nncn3c2)cc1,259 to 262 °C
16,C[C@]12C/C(=C\F)[C@H]3[C@@H](CCC4=CC(=O)CC[C@@H]43)[C@@H]1CCC2=O,208 to 212 °C
17,Cc1cccc(Nc2nc3c(s2)CCc2[nH]ncc2-3)n1,280 °C
18,NN=C1CCc2ccccc21,84 to 86 °C
19,CCOCCS(=O)(=O)c1c(Cl)nc(Cl)nc1Cl,133 to 134 °C
20,CC1=C(C(=O)OCCCO[N+](=O)[O-])C(c2cccc([N+](=O)[O-])c2)C(C(=O)OCCCO[N+](=O)[O-])=C(N)N1 (stereo unspecified),145 to 146 °C
21,COc1cc(C(=O)O)ccc1Cc1c(Cl)n(C)c2ccc(CC3CCN(C)C3=O)cc12 (stereo unspecified),204 to 205 °C
22,CC(=O)CSc1cc(C(C)(C)C)c(O)c(C(C)(C)C)c1,105 to 106 °C

row,SMILES,melting point
1,CCCc1c(OCCCCC(C)(C)c2nnn[nH]2)ccc(C(C)=O)c1O,112 to 115 °C
2,CC(C)c1ccc(-c2nc3ccc(OC(F)(F)F)cc3[nH]2)cc1,203 to 205 °C
3,COc1cc(N)c(Cl)cc1C(=O)NCCN(C)C1CC1,164 to 165 °C
4,CCOC(=O)c1ncoc1-c1cc(Cl)nc(Cl)c1,108 to 109 °C
5,Nc1cnn(CCO)c1NCCO,140 to 142 °C
6,Cc1c2c(cn1C)NC(=O)C(O)N=C2c1ccccc1 (stereo unspecified),243 °C
7,CCOC(=O)c1ccc(-c2ccc(OCC(O)CO)c(-c3ccc4c(c3)C(C)(C)CCC4(C)C)c2)cc1 (stereo unspecified),56 °C
8,COc1cc(NC(=O)Oc2ccc(N(CCCl)CCCl)cc2)cc(Nc2c3ccccc3nc3ccccc23)c1,179 to 180 °C
9,Cc1c(F)c(Cl)cc2c1c(=O)c(C(=O)O)cn2C1CC1,258 to 260 °C
10,COC(=O)c1cc(N)ccc1O,93 to 95 °C
11,CNC(=O)C(Cc1ccc(OC)cc1)NC(=O)C(CC(C)C)C(CC(=O)OC)SC(C)=O (stereo unspecified),118 to 135 °C
12,COc1cc(F)c(C(=O)CCCCCBr)cc1OC,81 to 83 °C
13,O=C(O)C1(c2ccccc2)CCC2(CC1)OCCO2,134 to 139 °C
14,Cc1c(NC(=O)c2ccc(OC[C@@H]3CCCO3)cc2)ccc2cc(CN[C@@H]3CCCC[C@H]3O)cnc12,142 to 143 °C
15,CCn1cc(C(=O)NC2Cc3ccccc3C2)c(=O)c2cnc(N3CCCC3)nc21,252 to 253 °C
16,CC(=O)C(C(C)=O)c1ccccc1,40 to 52 °C
17,NC(=O)c1cc(F)c(F)c(Cl)c1Cl,153 to 155 °C
18,COC(=O)c1cccc(CCN(C)CCCC(C(=O)OC)(c2ccc(OC)c(OC)c2)C(C)C)c1 (stereo unspecified),87 to 90 °C
19,CCCCCCCCc1c(N)nc(-n2cccn2)nc1CC,62 to 63 °C
20,O=C(NC(=O)c1cccs1)NC1CN2CCC1CC2 (stereo unspecified),232 to 233 °C
21,CCCCCCCCOc1ccc(OCc2ccc(C(=O)OC3CCC(CCC)(CCC)OC3=O)cc2)cc1 (stereo unspecified),65 °C
22,Cc1cc(C(c2ccc(C(c3ccc(O)c(C)c3)c3ccc(O)c(C)c3)cc2)c2ccc(O)c(C)c2)ccc1O,195 °C
